This note sets out measurements from article PMC7168933, “Design, Synthesis and Biochemical Evaluation of Novel Ethanoanthracenes and Related Compounds to Target Burkitt’s Lymphoma” (Pharmaceuticals, 2020).

Like-named read-outs stand apart in the source and are kept apart here.

Data set [1] concerns MUTU-1 Burkitt's lymphoma cell line. In words: FITC Annexin V/PI FACS analysis of apoptosis in MUTU-I cells. In kind it is cell-based. Particulars: 24 h. Here is the method:
(§1) BL cells DG-75 and MUTU-1 (750,000) were treated with the specified concentration of the selected compound and incubated for 24 h (MUTU-1) or 48 h (DG-75) with taxol as the positive control. Samples were harvested by centrifugation and the pellets were rinsed with 0.5 mL of Ca^2+ Annexin V binding buffer (0.1 M HEPES, pH 7.4; 1.4 M NaCl; 25 mM CaCl2) each and pelleted again by centrifugation. Supernatants were decanted and the pellets were suspended again in 50 µL FITC Annexin V (diluted 1:33 in Ca^2+ Annexin V binding buffer), the samples were then placed on ice and incubated for 10 min in the dark. After the incubation period 0.5 mL of Ca^2+ Annexin V binding buffer was added and samples were pelleted by centrifugation. The supernatant was decanted and the pellet was suspended in PI solution (500 µL; 0.5 µg/mL). After 1 h, the samples were recorded using a CyAn ADP flow cytometer (Beckman Coulter Inc., Brea, CA, USA). 10,000 cells were analysed with the Flowjo software package. Taxol was used as a positive control for cell death.
(In general: A flow cytometer gives signals particle by particle.)

The test system of data set [2] is DG-75 Burkitt's lymphoma cell line. In words: FITC Annexin V/PI FACS analysis of apoptosis in DG-75 cells. In kind it is cell-based. Particulars: 48 h. How it is done: as §1
Data set [3] in a line: Viability of peripheral blood mononuclear cells (alamarBlue). Particulars: human, peripheral blood mononuclear cells (PBMCs); for viability at 24 h, 0.5 µM: read-out: viable PBMCs at 0.5 µM; for viability at 24 h, 1 µM: read-out: viable PBMCs at 1 µM. In kind it is cell-based. Here is the method: BL cells were seeded in a 96-well plate (1–5 × 10^4 cells per 200 µL in well). Cells were treated with the desired drug concentration for a predetermined time frame and incubated as required. alamarBlue (20 µL) was added to each well and the cells were incubated at 37 °C in the dark for 4 h. Plates were then recorded on a fluorescence plate reader (SpectraMax Gemini, Molecular Devices) at 544 nm (excitement) and 590 nm (emission). Experiments were performed in triplicate using controls of reagent, medium and vehicle (100% viability). Taxol (10 μM) was used as the control drug (90% cytotoxicity) for both cell lines. The experiments were performed in triplicate and the mean value for three independent experiments was calculated.
Blood was obtained from healthy donors (n = 2) after informed consent was received. The blood was then placed into a 50 mL falcon tube and diluted with phosphate-buffered saline (PBS), 1:2. The blood was separated into red blood cells, white blood cell ring and serum using LymphoPrep. The blood was slowly added to Ficoll pague plus (20 mL). The tubes containing the blood were then centrifuged for 30 min at 1700 g. Following transfer of the white blood cell ring to a new 50 mL tube, the volume was adjusted to 50 mL. The samples were again centrifuged for 10 min at 1700 g. The, supernatant liquid was removed; and this step was repeated. The resultant pellet was then resuspended in 10 mL of complete Iscove’s Modified Dulbecco’s (IMDM) media (10% FBS, 0.1% Ciprofloxacin (10 mg/mL)) for use in the cell viability experiments.

Data set [4] relates to DG-75 cells. The data set can be described thus: Effect of NAC antioxidant pre-treatment on viability of DG-75 cells (alamarBlue). The data set is classed as cell-based. The note with it: Homo sapiens, 1 µM compound, 48 h, no NAC, read-out: viable DG-75 cells without NAC. Here is the method: Cell proliferation of DG-75 cells was determined with an alamarBlue assay (seeding density 2 × 10^4 cells/mL per well for 96-well plates), with vehicle control ethanol 1% (v/v). Cells were retained for 24 h and then pre-treated with NAC (5 mM) for 1 h, followed by compounds 15, 16b and 16c at 1 μM for 48 h. Cell viability was measured by alamarBlue assay (mean of three independent experiments).
N-Acetylcysteine (Sigma) was dissolved in sterile water (100 mM). Fresh solutions were prepared for each experiment. A 96 well plate was seeded with 2 × 10^4 cells/well for DG-75 cells. After 23 h, the DG-75 cells were then pre-treated with NAC (5 mM) for 1 h before compound treatment. The wells were then treated with the desired drug concentration (1 µM) for a predetermined time frame (48 h). After treatment and incubation, each well was treated with 20 µL of alamarBlue (37 °C) and the plate was incubated in the dark at 37 °C for 4–6 h. Fluorescence of the 96 well plates was then recorded at 590 nm (excitation 544 nm), as described for ‘alamarBlue viability assay’ (above). The percentage of viable cells remaining with NAC pre-treatment was compared to the percentage of viable cells remaining without NAC pre-treatment in order to determine the implication of ROS in the mechanism of cell death induced.

Data set [5] has as its system MUTU-1 Burkitt lymphoma cell line (EBV+). Particulars: 1 μM, 24 h.
In data set [6] the test system is DG-75 Burkitt lymphoma cell line (EBV−, chemoresistant). Particulars: 1 μM, 48 h.
Data set [7] relates to MUTU-1 Burkitt lymphoma cell line (EBV+). In words: cells. The note with it: Mutu-1, 24 h; for IC50: read-out: IC50 MUTU-I 24 h; for viability at 1 µM: read-out: MUTU-1 Cell Viability % 1 μM, 1 μM, 24 h; for viability at 10 µM: read-out: MUTU-1 Cell Viability % 10 μM, 10 μM, 24 h.
Data set [8] concerns DG-75 Burkitt lymphoma cell line (EBV−, chemoresistant). In words: cells. The note with it: Homo sapiens, DG-75, 48 h; for viability at 1 µM: read-out: DG-75 Cell Viability % 1 μM, 1 μM, 48 h; for viability at 10 µM: read-out: DG-75 Cell Viability % 10 μM, 10 μM, 48 h; for IC50: read-out: IC50 DG-75 48 h.
Data set [9] can be described thus: HPLC stability study in phosphate buffers. The data set is classed as physicochemical. Here is the method: The HPLC stability studies for compound 16a were performed using a Symmetry® column (C18, 5 µm, 4.6 × 150 mm), detector Waters 2487 Dual Wavelength Absorbance, HPLC pump: Waters 1525 binary and Autosampler: Waters 717 plus (Waters Corporation, Milford, MA, USA). Samples were detected at wavelength of 254 nm. The chromatography was performed with the following optimised conditions: mobile phase: (acetonitrile (80%): water (20%)), run time: 10 min, flow rate: 1 mL/min, with detection at 254 nm. Compound 16a (5 mg) was dissolved in the mobile phase (10 mL) to provide the stock solution for the experiment. The phosphate buffers were prepared following the British Pharmacopoeia monograph 2019 at the selected pH 4, pH 7.4 and pH 9. To a volume of the appropriate buffer (1 mL), stock solution (30 μL) was added, and the solution was shaken and then used immediately for the experiment. Samples of the solution were then analysed over the following 48 h period at selected time intervals (t = 0 min, 5 min, 30 min, 60 min, 90 min, 120 min, 24 h and 48 h).

Data set [10] deals with MUTU-I cell line. In words: Lactate dehydrogenase (LDH) release cytotoxicity assay in MUTU-I cells. Particulars: percentage of total LDH release. The data set is classed as cell-based. Here is the method:
(§2) The CytoTox 96 non-radioactive cytotoxicity assay (Promega Corporation; 2800 Woods Hollow Road, Madison, WI, USA) was used to determine the cyctotoxicity of selected compounds. BL cells were incubated for 24 hr and then treated with the selected compounds (at 10 μM concentration) 15, 16b and 16c as in the cell viability assay. After 24 or 48 h as appropriate, the lysis solution (10X), (20 μL) was added. The cells were incubated for a further 1 h to ensure complete death. The supernatant (50 μL) was removed and transferred to a new 96-well plate. “Substrate mix″ (50 μL) was added and the plate was retained in the dark at RT for 30 min. “Stop solution″ (50 μL) was added to each well and the absorbance was recorded at 490 nm with a Dynatech MR5000 plate reader and the cell death was calculated.

For data set [11], the system named is DG-75 cell line. In words: Lactate dehydrogenase (LDH) release cytotoxicity assay in DG-75 cells. The data set is classed as cell-based. The note with it: percentage of total LDH release. How it is done: as §2
On the technique in general: LDH in the medium is a marker of cell lysis.

`O=C1C2C3c4ccccc4C(/C=C/[N+](=O)[O-])(c4ccccc43)C2C(=O)N1CCCCCCN1C(=O)C2C3c4ccccc4C(/C=C/[N+](=O)[O-])(c4ccccc43)C2C1=O` (stereo not shown) [Compound 15, 13,13′-(Hexane-1,6-diyl)bis(9-((E)-2-nitrovinyl)-9,10-dihydro-9,10[3,4]epipyrroloanthracene-12,14-dione)]: the “apoptosis in MUTU-I at 0.2 µM” value in [1] is on record as above 90%. Moreover, the “apoptosis in DG-75 at 10 µM” value in [2] is given as 95%. In addition, in [3], the viability at 24 h, 0.5 µM was around 99% and the viability at 24 h, 1 µM was in the range of 72 to 81%. For the same compound, the viability at 1 µM in data set [4] was 6 to 23%. In addition, the “MUTU-1 Cell Viability % 1 μM” value in data set [5] is given as 4.5%. Besides, in data set [6], the “DG-75 Cell Viability % 1 μM” value was determined as 3.8%. In data set [7], the IC50 (as a rule, the concentration needed to halve the response being measured) is 90 nM; the viability at 1 µM was below 5%; the viability at 10 µM worked out at 2.1%. Also, in [8], the viability at 1 µM was below 5%, the viability at 10 µM stood at 0% and the IC50 worked out at 240 nM.

Take `O=C1C2C3c4ccccc4C(C=C[N+](=O)[O-])(c4ccccc43)C2C(=O)N1c1ccccc1` (stereo not shown) [Compound 16a, (E)-9-(2-Nitrovinyl)-13-phenyl-9,10-dihydro-9,10-[3,4]epipyrroloanthracene-12,14-dione]: the “apoptosis in MUTU-I at 0.2 µM” value in data set [1] stood at 46%. Further, the “apoptosis in MUTU-I at 0.5 µM” value in data set [1] is listed as “over 80%”. Also, the “apoptosis in MUTU-I at 1 µM” value in data set [1] (1 µM) was “over 80%”. Moreover, the “apoptosis in MUTU-I at 10 µM” value in [1] (10 µM) is listed as “over 80%”. In data set [2], the “apoptosis in DG-75 at 10 µM” value is given as 92%. Besides, in data set [2] (concentrations lower than 10 µM), the “apoptosis in DG-75 at lower concentrations” value is below 5%. For the same compound, the half-life (as a rule, the time needed for the level to fall by half in the phase considered) at 14.6 µg/mL in data set [9] (pH 4 phosphate buffer, read-out: half-life (t½) at pH 4 (converted)) is 11 h; in data set [9] (pH 7.4 phosphate buffer, read-out: half-life (t½) at pH 7.4 (converted)), 10.5 h; in [9] (pH 9 phosphate buffer, read-out: half-life (t½) at pH 9) it was above 24 h. The “MUTU-1 Cell Viability % 1 μM” value in data set [5] was 10.3%. The “DG-75 Cell Viability % 1 μM” value in data set [6] is recorded as below 6%. The IC50 came out at 210 nM in data set [7] and 710 nM in data set [8]. In data set [7], the viability at 1 µM was found to be 10%. The viability at 10 µM was determined as 1.4% in data set [7] and 1.1% in [8].

`O=C1C2C3c4ccccc4C(C=C[N+](=O)[O-])(c4ccccc43)C2C(=O)N1c1ccc(Cl)cc1` (stereo not shown) [Compound 16b, (E)-13-(4-Chlorophenyl)-9-(2-nitrovinyl)-9,10-dihydro-9,10-[3,4]epipyrroloanthracene-12,14-dione]: the “apoptosis in MUTU-I at all concentrations” value in data set [1] (all concentrations (0.2–10 µM)) was “over 80%”. In data set [2], the “apoptosis in DG-75 at 1 µM” value came out at 61%. Also, the “LDH release (cytotoxicity) in MUTU-I at 1 µM” value in data set [10] (1 µM) amounted to 5%. For the same compound, the “LDH release (cytotoxicity) in MUTU-I at 10 µM” value in data set [10] (10 µM) is given as 2%. For the same compound, in data set [3], the viability at 24 h, 0.5 µM is around 99% and the viability at 24 h, 1 µM was 72 to 81%. For the same compound, the viability at 1 µM in data set [4] fell in the range of 6 to 23%. Also, the “DG-75 Cell Viability % 1 μM” value in [6] amounted to 5.5%. In addition, in data set [7], the IC50 was 170 nM, the viability at 1 µM worked out at 5% and the viability at 10 µM was found to be 0.38%. In data set [8], the viability at 1 µM was below 6%, the viability at 10 µM was found to be 0.52% and the IC50 stood at 450 nM.

On to `COc1ccc(N2C(=O)C3C4c5ccccc5C(/C=C/[N+](=O)[O-])(c5ccccc54)C3C2=O)cc1` (stereo not shown) [Compound 16c, (E)-13-(4-Methoxyphenyl)-9-(2-nitrovinyl)-9,10-dihydro-9,10-[3,4]epipyrroloanthracene-12,14-dione], for which, in data set [1], the “apoptosis in MUTU-I at 0.5 µM” value is recorded as above 90%. Further, in [2], the “apoptosis in DG-75 at 1 µM” value worked out at 29%. Also, in data set [11], the “LDH release (cytotoxicity) in DG-75 at 10 µM” value was found to be 25%. Also, in [3], the viability at 24 h, 0.5 µM was around 99% and the viability at 24 h, 1 µM was in the range of 72 to 81%. For the same compound, the viability at 1 µM in data set [4] lay within 6 to 23%. In data set [7], the IC50 worked out at 200 nM, the viability at 1 µM was 0.19% and the viability at 10 µM worked out at 1.1%. Besides, in data set [8], the viability at 1 µM turned out to be 28.4%, the viability at 10 µM was 2.1% and the IC50 was found to be 560 nM.
